Where only a bound is given, the exact number is not on record here.

This passage reports EC50, melting point and Emax results from patent US9586963B2 (GENFIT, priority 2011, dated 2017).

One series has as its target T1, Rev-Erb alpha (Homo sapiens, UniProt P20393).
T1 sequence (P20393 284-614 limits assumed): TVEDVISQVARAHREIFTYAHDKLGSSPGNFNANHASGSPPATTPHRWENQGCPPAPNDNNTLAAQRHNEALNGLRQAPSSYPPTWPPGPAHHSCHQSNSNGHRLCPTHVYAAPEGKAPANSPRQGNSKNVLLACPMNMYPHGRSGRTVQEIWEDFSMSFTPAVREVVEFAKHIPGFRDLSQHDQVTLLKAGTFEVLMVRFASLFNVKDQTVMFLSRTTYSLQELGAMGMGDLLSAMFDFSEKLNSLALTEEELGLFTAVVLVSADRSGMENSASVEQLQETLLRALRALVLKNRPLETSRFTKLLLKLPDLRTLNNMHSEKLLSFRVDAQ
Briefly: M2H (mammalian two-hybrid) cellular activation assay of Rev-Erb alpha. Conditions: M2H assay, HEK293 cells; for EC50: Gal4-Rev-Erb alpha / VP16-NCoR, luciferase reporter; for Emax: relative to DMSO, at the tested dose, read-out: TOP activation. It is filed as cell-based. The gist of the method:
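Six-point dose-response, 18 h, 37 °C, serum-free, in HEK293 cells carrying a Gal4-RE luciferase reporter with Gal4-Rev-Erb alpha or beta plus VP16-NCoR (corepressor interaction readout). EC50 and TOP activation (%) derived from luminescence across four experiments.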
For orientation: In a reporter assay the amount or activity of a reporter protein is the signal.

Compound `FC(F)(F)c1ccc(-c2cncnc2)c(Oc2nn3c(C(F)(F)F)nnc3c3ccccc23)c1` [Cpd.5-62, 6-(2-(pyrimidin-5-yl)-5-(trifluoromethyl)phenoxy)-3-(trifluoromethyl)-[1,2,4]triazolo[3,4-a]phthalazine] returned a melting point of 197 to 200 °C. The same compound returned an EC50 on Rev-Erb alpha of 1000 to 6000 nM.
Compound `Cc1cc(Oc2cc(C(F)(F)F)ccc2-c2cccnc2)nn2c(C(F)(F)F)nnc12` [Cpd.5-32, 8-methyl-6-(2-(pyridin-3-yl)-5-(trifluoromethyl)phenoxy)-3-(trifluoromethyl)-[1,2,4]triazolo[4,3-b]pyridazine] registered a melting point of 151 to 153 °C. Besides, at Rev-Erb alpha, the EC50 was more than 6000 nM and the Emax was more than 130%.
Consider `FC(F)(F)c1ccc(CN2CCOCC2)c(Oc2ccc3nnc(Cl)n3n2)c1` [Cpd.4-122, 3-chloro-6-(2-(morpholinomethyl)-5-(trifluoromethyl)phenoxy)-[1,2,4]triazolo[4,3-b]pyridazine], for which the melting point lay in the range of 55 to 58 °C. The same compound had an EC50 on Rev-Erb alpha of 1000 to 6000 nM.
In the case of `FC(F)(F)c1ccc(-c2ccc(Cl)nc2)c(Oc2ccc3nnc(Cl)n3n2)c1` [Cpd.4-101, 3-chloro-6-(2-(6-chloropyridin-3-yl)-5-(trifluoromethyl)phenoxy)-[1,2,4]triazolo[4,3-b]pyridazine], the melting point fell in the range of 198 to 200 °C. This compound returned a half-maximal effective concentration (EC50) on Rev-Erb alpha of 100 to 1000 nM.
Turning to `CC(C)CNc1ccc(-c2ccccc2)c(Oc2ccc3nnc(Cl)n3n2)c1` [Cpd.4-51, 3-chloro-6-(4-N-2-methylpropylamino-biphenyl-2-yloxy)-[1,2,4]triazolo[4,3-b]pyridazine], the melting point was in the range of 124 to 128 °C. On Rev-Erb alpha, this compound had an EC50 of 100 to 1000 nM.
The matching figures for `COC(=O)CCNc1ccc(Oc2ccc3nnc(Cl)n3n2)c(-c2ccccc2)c1` [Cpd.4-190, 3-chloro-6-(5-methyloxycarbonylethylamino-biphenyl-2-yloxy)-[1,2,4]triazolo[4,3-b]pyridazine]: 52 to 57 °C and 1000 to 6000 nM.
The compound `CN(C)Cc1ccc(-c2ccccc2)c(Oc2ccc3nnc(Cl)n3n2)c1` [Cpd.4-41, 3-chloro-6-(4-N,N-dimethylaminomethyl-biphenyl-2-yloxy)-[1,2,4]triazolo[4,3-b]pyridazine] registered a melting point of 141 to 144 °C. The compound also returned an EC50 at Rev-Erb alpha of 1000 to 6000 nM.
In the case of `COc1ccc(-c2ccccc2Oc2ccc3nnc(Cl)n3n2)cc1` [Cpd.4-22, 6-(4′-methoxy-biphenyl-2-yloxy)-3-chloro-[1,2,4]triazolo[4,3-b]pyridazine], the melting point worked out at 138.1 °C. On Rev-Erb alpha, this compound had an EC50 of 100 to 1000 nM.
Compound `Fc1cccc(-c2ccc(F)cc2Oc2ccc3nnc(Cl)n3n2)c1` [Cpd.4-30, 6-(3′-fluoro-4-fluoro-biphenyl-2-yloxy)-3-chloro-[1,2,4]triazolo[4,3-b]pyridazine] yielded a melting point of 123.4 °C. Further, on Rev-Erb alpha, the EC50 lay in the range of 100 to 1000 nM.
`COc1ncc(-c2ccc(C(F)(F)F)cc2Oc2nn3c(Cl)nnc3c3ccccc23)c(OC)n1` [Cpd.5-54, 3-chloro-6-(2-(2,4-dimethoxypyrimidin-5-yl)-5-(trifluoromethyl)phenoxy)-[1,2,4]triazolo[3,4-a]phthalazine]: the melting point is 240 °C. In addition, at Rev-Erb alpha, the EC50 is more than 6000 nM and the Emax is more than 130%.
Consider `Fc1ccc(-c2cc(F)ccc2Oc2ccc3nnc(Cl)n3n2)c(F)c1` [Cpd.4-188, 3-chloro-6-(5,2′,4′-trifluorobiphenyl-2-yloxy)-[1,2,4]triazolo[4,3-b]pyridazine], for which the melting point was found to be 143.6 °C. Also, the EC50 on Rev-Erb alpha lay in the range of 100 to 1000 nM.
For the compound `CCN(CC)Cc1ccc(-c2ccccc2)c(Oc2ccc3nnc(Cl)n3n2)c1` [Cpd.4-184, 3-chloro-6-(4-diethylaminomethylbiphenyl-2-yloxy)-[1,2,4]triazolo[4,3-b]pyridazine], the melting point lay in the range of 110 to 112 °C. At Rev-Erb alpha, this compound had an EC50 of 1000 to 6000 nM.
For the compound `Clc1nnc2ccc(Oc3ccc(CNCC4CCCCC4)cc3-c3ccccc3)nn12` [Cpd.4-162, 3-chloro-6-(5-((cyclohexylmethyl)aminomethyl)biphenyl-2-yloxy)-[1,2,4]triazolo[4,3-b]pyridazine], the melting point fell in the range of 53.4 to 55.7 °C. This compound displayed an EC50 on Rev-Erb alpha of 1000 to 6000 nM.
Turning to `Cc1cc(Oc2cc(C(F)(F)F)ccc2-c2cncnc2)nn2cnnc12` [Cpd.5-46, 8-methyl-6-(2-(pyrimidin-5-yl)-5-(trifluoromethyl)phenoxy)-[1,2,4]triazolo[4,3-b]pyridazine], the melting point fell in the range of 230 to 234 °C. Also, on Rev-Erb alpha, the EC50 is more than 6000 nM and the Emax was more than 130%.
The compound `COc1ccccc1-c1cccc(Oc2ccc3nnc(Cl)n3n2)c1` [Cpd.3-8, 6-(2′-methoxy-biphenyl-3-yloxy)-3-chloro-[1,2,4]triazolo[4,3-b]pyridazine] had a melting point of 82.5 °C. Besides, the EC50 at Rev-Erb alpha is 1000 to 6000 nM.
In turn, `FC(F)(F)c1ccc(-c2ccccc2)c(Oc2nn3c(Cl)nnc3cc2-c2ccccc2)c1` [Cpd.5-5, 3-chloro-7-phenyl-6-(4-trifluoromethyl-biphenyl-2-yloxy)-[1,2,4]triazolo[4,3-b]pyridazine] returned a melting point of 190 to 192 °C. The EC50 at Rev-Erb alpha was in the range of 100 to 1000 nM.
The matching figures for `COc1ncc(C(F)(F)F)cc1-c1ccc(C(F)(F)F)cc1Oc1nn2c(Cl)nnc2cc1C` [Cpd.5-26, 3-chloro-7-methyl-6-((2-(2-methoxy-5-(trifluoromethyl)pyridin-3-yl))-5-(trifluoromethyl)phenoxy)-[1,2,4]triazolo[4,3-b]pyridazine]: 194 to 196 °C and 1000 to 6000 nM.
The compound `FC(F)(F)Oc1ccc(-c2ccccc2)c(Oc2ccc3nnc(Cl)n3n2)c1` [Cpd.4-68, 3-chloro-6-(4-trifluoromethyloxy-biphenyl-2-yloxy)-[1,2,4]triazolo[4,3-b]pyridazine] came in with a melting point of 225.4 to 228.2 °C. Besides, the EC50 on Rev-Erb alpha lay within 100 to 1000 nM.
Turning to `Oc1cccc(-c2ccc(C(F)(F)F)cc2Oc2ccc3nnc(C(F)(F)F)n3n2)c1` [Cpd.4-138, 3-(trifluoromethyl)-6-(3′-hydroxy-4-(trifluoromethyl)biphenyl-2-yloxy)-[1,2,4]triazolo[4,3-b]pyridazine], the melting point worked out at 195 °C. Besides, the EC50 on Rev-Erb alpha lay within 1000 to 6000 nM.
The compound `CCc1cc(Oc2cc(C(F)(F)F)ccc2-c2ccccc2)nn2c(Cl)nnc12` [Cpd.5-13, 3-chloro-8-ethyl-6-(4-trifluoromethyl-biphenyl-2-yloxy)-[1,2,4]triazolo[4,3-b]pyridazine] displayed a melting point of 139.5 to 141.8 °C. This compound showed an EC50 on Rev-Erb alpha of 100 to 1000 nM.
With `CC(C)CCNc1ccc(-c2ccccc2)c(Oc2ccc3nnc(Cl)n3n2)c1` [Cpd.4-175, 3-chloro-6-(4-((3-methylbutyl)amino)biphenyl-2-yloxy)-[1,2,4]triazolo[4,3-b]pyridazine], the melting point is 145 to 150 °C. Also, the EC50 at Rev-Erb alpha lay within 100 to 1000 nM.
For `Oc1cccc(-c2cc(F)ccc2Oc2ccc3nnc(Cl)n3n2)c1` [Cpd.4-77, 3-chloro-6-(5-fluoro-3′-hydroxy-biphenyl-2-yloxy)-[1,2,4]triazolo[4,3-b]pyridazine], the melting point was in the range of 241.3 to 244.5 °C. Further, on Rev-Erb alpha, the EC50 lay in the range of 1000 to 6000 nM.
In the case of `CC(C)CNc1ccc(Oc2ccc3nnc(Cl)n3n2)c(-c2ccccc2)c1` [Cpd.4-67, 3-chloro-6-(5-isobutylamino-biphenyl-2-yloxy)-[1,2,4]triazolo[4,3-b]pyridazine], the melting point lay in the range of 62 to 67 °C. On Rev-Erb alpha, the EC50 is less than 100 nM.
`Cc1ccc2c(c1)c(Oc1cc(C(F)(F)F)ccc1-c1ccccc1)nn1c(Cl)nnc21` [Cpd.5-10, 3-chloro-6-(4-trifluoromethyl-biphenyl-2-yloxy)-8-methyl-[1,2,4]triazolo[3,4-a]phthalazine] gave a melting point of 195 to 197 °C. The compound also displayed an EC50 at Rev-Erb alpha of 100 to 1000 nM.
The compound `CCC(=O)Nc1ccc(Oc2ccc3nnc(Cl)n3n2)c(-c2ccccc2)c1` [Cpd.4-191, 3-chloro-6-(5-ethylcarbonylamino-biphenyl-2-yloxy)-[1,2,4]triazolo[4,3-b]pyridazine] yielded a melting point of 163 to 165 °C. On Rev-Erb alpha, this compound displayed an EC50 of 1000 to 6000 nM.
For the compound `COC(=O)c1cccc(-c2ccccc2Oc2ccc3nnc(Cl)n3n2)c1` [Cpd.4-140, 3-Chloro-6-(3′-(methyloxycarbonyl)biphenyl-2-yloxy)-[1,2,4]triazolo[4,3-b]pyridazine], the melting point is 236 to 246 °C. In addition, at Rev-Erb alpha, the EC50 was more than 6000 nM and the Emax was more than 130%.
In turn, `Fc1ccc(-c2ccc(F)cc2Oc2ccc3nnc(Cl)n3n2)cc1` [Cpd.4-31, 6-(4′-fluoro-4-fluoro-biphenyl-2-yloxy)-3-chloro-[1,2,4]triazolo[4,3-b]pyridazine] showed a melting point of 129.7 °C. The compound further came in with an EC50 at Rev-Erb alpha of 100 to 1000 nM.
`Fc1ccc(-c2ccccc2Oc2ccc3nnc(Cl)n3n2)cc1F` [Cpd.4-20, 6-(3′,4′-difluoro-biphenyl-2-yloxy)-3-chloro-[1,2,4]triazolo[4,3-b]pyridazine] had a melting point of 129.3 °C. Moreover, the EC50 on Rev-Erb alpha was in the range of 100 to 1000 nM.
Turning to `CCCNc1ccc(Oc2ccc3nnc(Cl)n3n2)c(-c2ccccc2)c1` [Cpd.4-56, 3-chloro-6-(5-propylamino-biphenyl-2-yloxy)-[1,2,4]triazolo[4,3-b]pyridazine], the melting point is 55 to 58 °C. Also, the EC50 at Rev-Erb alpha lay in the range of 100 to 1000 nM.

A word on the EC50: it is the concentration giving half of the maximal effect. Higher therefore signals weaker potency. Usually melting point stands for the temperature, or range, at which the solid turns liquid.
